Where two headings read alike, the source gives them in different places.
Key:
[1] = biological target: T1, Serotonin 5-HT7 receptor (Homo sapiens, UniProt P34969); experiment: cAMP HTRF Assay for Gs Coupled Receptors, agonist and antagonist mode; type: cell-based
T1 construct: expressed in transfected cells; host or cells: CHO-K1
Description: Antagonist and agonist activities were shown using a cAMP HTRF Assay for Gs Coupled Receptors. The assay was prepared as follows: CHO-K1 cells expressing recombinant human and Serotonin 5-HT7 receptors were grown, prior to analysis, in media without antibiotic. The cells were detached by gentle flushing with PBS-EDTA (5 mM EDTA), recovered by centrifugation, and resuspended in assay buffer (KRH: 5 mM KCl, 1.25 mM MgSO4, 124 mM NaCl, 25 mM HEPES, 13.3 mM Glucose, 1.25 mM KH2PO4, 1.45 mM CaCl2, 0.5 g/l BSA).
To determine agonist activity (96 well), 12 μL of cells were mixed with 12 μL of the test compound at increasing concentrations and then incubated 30 min at room temperature. After addition of the lysis buffer and 1 hour incubation, cAMP concentrations were estimated according to the manufacturer specification.
Antagonist activity was determined in 96 well plates: 12 μL of cells were mixed with 6 μL of the test compound at increasing concentrations and then incubated 10 min. Thereafter 6 μL of the reference agonist was added at a final concentration corresponding to the historical EC80. The plates were then incubated for 30 min at room temperature. After addition of the lysis buffer and 1 hour incubation, cAMP concentrations were estimated according to the manufacturer specification. IC50 values were used to determine whether a compound acted as an antagonist.

[2] = biological target: T2, Serotonin 5-HT1A receptor (Homo sapiens, UniProt P08908); experiment: GTPγS Scintillation Proximity Assay, agonist and antagonist mode; type: biochemical
T2 sequence (P08908 1-422): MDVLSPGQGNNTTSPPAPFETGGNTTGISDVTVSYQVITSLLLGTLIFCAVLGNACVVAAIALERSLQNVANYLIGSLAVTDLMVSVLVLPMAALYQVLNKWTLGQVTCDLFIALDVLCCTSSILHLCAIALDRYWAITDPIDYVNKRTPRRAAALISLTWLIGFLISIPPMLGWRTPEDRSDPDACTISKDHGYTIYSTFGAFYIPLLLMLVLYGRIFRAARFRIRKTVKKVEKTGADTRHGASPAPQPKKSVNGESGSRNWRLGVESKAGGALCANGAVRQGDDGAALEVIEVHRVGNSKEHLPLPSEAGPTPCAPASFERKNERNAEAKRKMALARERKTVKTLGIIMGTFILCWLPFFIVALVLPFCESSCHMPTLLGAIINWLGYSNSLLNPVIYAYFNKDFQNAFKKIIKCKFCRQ
Description: (§1) Antagonist and agonist activities were determined using a GTPγS Scintillation Proximity Assay. The assay was prepared as follows: Membrane extracts were prepared from recombinant human Dopamine D2L, D3; Serotonin 5-HT1A, 5-HT1B, 5-HT1D and 5-HT1F receptors.
(§2) Samples were tested by proprietary biological assays by Ogeda S. A., Euroscreen FAST Business Unit, Rue Adrienne Bolland, 47 B-6041 Gosselies, Belgium. Each protein assay was prepared using the following conditions.
5-HT1A • Assay buffer: 20 mM HEPES pH 7.4; 100 mM NaCl, 10 μg/ml saponin, 3 mM MgCl2, 0.1% protease-free BSA; • Membranes: recombinant 5-HT1A membrane extracts thawed on ice and diluted in assay buffer to give 1 mg/ml (10 μg/well) and kept on ice; • GDP: diluted in assay buffer to give a 3 μM final assay concentration; • Beads: PVT-WGA (Perkin Elmer, RPNQ001), diluted in assay buffer at 50 mg/ml (0.5 mg/well); and • GTPγ^35S: (PerkinElmer NEG030X), diluted in assay buffer to give 0.1 nM;
(§3) Membranes were mixed with GDP (volume:volume 1:1) and incubated for at least 15 min on ice. In parallel, GTPγ[^35S] is mixed with the beads (volume:volume 1:1) just before starting the reaction.
(§4) To determine agonist activity, the following reagents were added in the wells of an Optiplate (Perkin Elmer): 50 μL of test or reference ligand, 10 μL of assay buffer, 20 μl of the membranes:GDP mix, and 20 μL of the GTPγ[^35S]:beads mix. EC50 values were used to determine whether a compound acted as an agonist.
(§5) To determine antagonist activity, the following reagents were added in the wells of an Optiplate (Perkin Elmer): 50 μL of test or reference ligand, 20 μL of the membranes:GDP mix, then the plate is incubated 15 minutes at room temperature. After incubation, 10 μL of reference agonist at historical EC80 (final concentration) was added, followed by 20 μL of the GTPγ[^35S]:beads mix.
(§6) The plates were covered with a top seal, mixed on an orbital shaker for 2 min, and then incubated for 1 hour at room temperature. Then the plates were centrifuged for 10 min at 2000 rpm, incubated at room temperature 1 hour and counted for 1 min/well with a PerkinElmer TopCount reader. IC50 values were used to determine whether a compound acted as an antagonist.

[3] = biological target: Dopamine D2L receptor (Homo sapiens, UniProt P14416); experiment: as above; type: biochemical
Chain of Dopamine D2L receptor (P14416 whole entry): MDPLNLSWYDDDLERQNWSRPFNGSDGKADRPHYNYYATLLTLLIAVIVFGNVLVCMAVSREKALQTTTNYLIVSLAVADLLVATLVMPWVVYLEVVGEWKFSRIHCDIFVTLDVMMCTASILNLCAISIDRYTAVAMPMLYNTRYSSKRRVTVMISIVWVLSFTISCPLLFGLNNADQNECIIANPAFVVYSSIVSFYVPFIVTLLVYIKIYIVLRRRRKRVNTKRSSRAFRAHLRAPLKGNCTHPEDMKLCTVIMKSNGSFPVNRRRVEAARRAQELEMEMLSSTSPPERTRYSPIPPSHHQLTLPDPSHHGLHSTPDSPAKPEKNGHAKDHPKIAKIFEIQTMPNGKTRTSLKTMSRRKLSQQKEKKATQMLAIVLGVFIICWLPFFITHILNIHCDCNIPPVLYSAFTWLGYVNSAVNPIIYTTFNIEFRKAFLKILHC
Description: as §1, §2
(§7) D2L • Assay buffer: 20 mM HEPES pH 7.4; 100 mM NaCl, 10 μg/ml saponin, 30 mM MgCl2, 0.1% protease-free BSA; • Membranes: recombinant D2L membrane extracts thawed on ice and diluted in assay buffer to give 1 mg/ml (10 μg/well) and kept on ice; • GDP: diluted in assay buffer to give a 3 μM final assay concentration; • Beads: PVT-WGA (Perkin Elmer, RPNQ001), diluted in assay buffer at 25 mg/ml (0.25 mg/well); and • GTPγ^35S: (PerkinElmer NEG030X), diluted in assay buffer to give 0.1 nM. D3 • Assay buffer: 20 mM HEPES pH 7.4; 100 mM NaCl, 10 μg/ml saponin, 1 mM MgCl2, 0.1% protease-free BSA; • Membranes: recombinant D3 membrane extracts thawed on ice and diluted in assay buffer to give 1 mg/ml (10 μg/well) and kept on ice; • GDP: diluted in assay buffer to give a 1 μM final assay concentration; • Beads: PVT-WGA (Perkin Elmer, RPNQ001), diluted in assay buffer at 50 mg/ml (0.5 mg/well); and • GTPγ^35S: (PerkinElmer NEG030X), diluted in assay buffer to give 0.1 nM.
as §3, §4, §5, §6

[4] = biological target: Dopamine D3 receptor (Homo sapiens, UniProt P35462); experiment: as above; type: biochemical
Chain of Dopamine D3 receptor (P35462 whole entry): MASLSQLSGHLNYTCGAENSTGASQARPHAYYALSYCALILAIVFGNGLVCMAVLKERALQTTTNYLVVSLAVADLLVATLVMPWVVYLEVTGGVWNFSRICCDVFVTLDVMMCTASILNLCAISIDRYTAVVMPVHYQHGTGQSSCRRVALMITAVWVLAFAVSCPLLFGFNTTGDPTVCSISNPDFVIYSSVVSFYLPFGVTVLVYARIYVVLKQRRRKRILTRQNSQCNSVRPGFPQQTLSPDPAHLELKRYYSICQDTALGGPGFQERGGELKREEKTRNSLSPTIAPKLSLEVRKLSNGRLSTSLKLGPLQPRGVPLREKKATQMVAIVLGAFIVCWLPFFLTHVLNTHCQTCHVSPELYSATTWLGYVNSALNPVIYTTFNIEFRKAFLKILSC
Description: as §1, §2, §7, §3, §4, §5, §6

[5] = Antagonist Activity (IC50), 5-HT7, CHO-K1 cells, vs reference agonist at EC80
[6] = IC50 value for the Serotonin 5-HT7 receptor, antagonist mode, bound stated
[7] = antagonist mode, bound stated, read-out: IC50 value for the Serotonin 5-HT1A receptor
[8] = membrane extracts, vs reference agonist at EC80, read-out: Antagonist Activity (IC50), 5-HT1A
[9] = Agonist Activity (EC50), D2L, membrane extracts
[10] = Antagonist Activity (IC50), D2L, membrane extracts, vs reference agonist at EC80
[11] = EC50 value for the Dopamine D2L receptor, agonist mode, bound stated
[12] = IC50 value for the Dopamine D2L receptor, antagonist mode, bound stated
[13] = Antagonist Activity (IC50), D3, membrane extracts, vs reference agonist at EC80
[14] = IC50 value for the Dopamine D3 receptor, antagonist mode, bound stated
[15] = Agonist Activity (EC50), D3, membrane extracts
[16] = EC50 value for the Dopamine D3 receptor, agonist mode, bound stated

T1 sequence (P34969 whole entry): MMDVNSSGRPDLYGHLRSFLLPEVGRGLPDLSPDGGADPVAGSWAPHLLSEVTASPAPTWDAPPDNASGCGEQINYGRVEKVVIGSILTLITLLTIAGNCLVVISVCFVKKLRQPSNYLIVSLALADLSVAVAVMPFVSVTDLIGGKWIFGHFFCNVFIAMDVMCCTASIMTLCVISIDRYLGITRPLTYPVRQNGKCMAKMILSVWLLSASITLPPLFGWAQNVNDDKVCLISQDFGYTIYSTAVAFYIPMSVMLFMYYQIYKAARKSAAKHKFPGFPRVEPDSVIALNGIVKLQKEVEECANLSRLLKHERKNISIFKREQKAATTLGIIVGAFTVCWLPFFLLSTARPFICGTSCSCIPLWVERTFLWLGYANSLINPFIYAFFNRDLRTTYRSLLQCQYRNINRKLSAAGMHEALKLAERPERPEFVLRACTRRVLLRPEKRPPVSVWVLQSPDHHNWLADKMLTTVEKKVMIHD

SMILES	IC50 [1, 5] [nM]	IC50 [1, 6] [nM]	EC50 ([2]; agonist mode, bound stated, read-out: EC50 value for the Serotonin 5-HT1A receptor) [nM]	IC50 [2, 7] [nM]	IC50 [2, 8] [nM]	EC50 ([2]; membrane extracts, read-out: Agonist Activity (EC50), 5-HT1A) [nM]	EC50 [3, 9] [nM]	IC50 [3, 10] [nM]	EC50 [3, 11] [nM]	IC50 [3, 12] [nM]	IC50 [4, 13] [nM]	IC50 [4, 14] [nM]	EC50 [4, 15] [nM]	EC50 [4, 16] [nM]	IC50 ([1]; CHO-K1 cells, vs reference agonist at EC80, read-out: Antagonist Activity (IC50), 5-HT7) [nM]	IC50 ([3]; membrane extracts, vs reference agonist at EC80, read-out: Antagonist Activity (IC50), D2L) [nM]	IC50 ([4]; membrane extracts, vs reference agonist at EC80, read-out: Antagonist Activity (IC50), D3) [nM]	EC50 [1] [nM]
CCN(CC)C(=O)N[C@H]1C[C@@H]2c3cccc4[nH]c(Br)c(c34)C[C@H]2N(C)C1 [Compound A8H, 3-((6aR,9S, 10aR)-5-bromo-7-methyl-4,6,6a,7,8,9,10,10a-octahydroindolo[4,3-fg]quinolin-9-yl)-1,1-diethylurea]	110	< 1000	< 1000	< 1000	160	31	1.1	3.5	< 1000	< 1000	9.3	< 1000						
CCN(CC(F)(F)F)C(=O)N[C@H]1C[C@@H]2c3cccc4[nH]c(C5CC5)c(c34)C[C@H]2N(C)C1 [Compound A17H, 3-((6aR,9S,10aR)-5-cyclopropyl-7-methyl-4,6,6a,7,8,9,10,10a-octahydroindolo[4,3-fg]quinolin-9-yl)-1-ethyl-1-(2,2,2-trifluoroethyl)urea]	140	< 1000		< 1000	590		1.1	4.2		< 1000	11	< 1000	8.2	< 1000				
CCN(CC(F)(F)F)C(=O)N[C@H]1C[C@@H]2c3cccc4[nH]c(C(F)(F)F)c(c34)C[C@H]2N(C)C1 [Compound A16H, 1-ethyl-3-((6aR,9S,10aR)-7-methyl-5-(trifluoromethyl)-4,6,6a,7,8,9,10,10a-octahydroindolo[4,3-fg]quinolin-9-yl)-1-(2,2,2-trifluoroethyl)urea]		< 1000								< 1000		< 1000			380	130	55	
CCN(CC)C(=O)N[C@H]1C[C@@H]2c3cccc4[nH]c(C(F)(F)F)c(c34)C[C@H]2N(C)C1 [Compound A9H, 1,1-diethyl-3-((6aR,9S,10aR)-7-methyl-5-(trifluoromethyl)-4,6,6a,7,8,9,10,10a-octahydroindolo[4,3-fg]quinolin-9-yl)urea]	190	< 1000					4.6	42	< 1000	< 1000	13	< 1000						
CC[C@@H](CO)NC(=O)[C@@H]1C[C@@H]2c3cccc4c3c(c(C3CC3)n4C)C[C@H]2N(C)C1 [Compound D13H, (6aR,9R,10aR)-5-cyclopropyl-N—((S)-1-hydroxybutan-2-yl)-4,7-dimethyl-4,6,6a,7,8,9,10,10a-octahydroindolo[4,3-fg]quinoline-9-carboxamide]	780	< 1000					170		< 1000		400	< 1000	48	< 1000				40

From patent US10815235B2, “Polycyclic compounds and uses thereof” (priority 2017, dated 2020)
